Values quoted from earlier work as cited in US4761405A, “Antagonists of specific excitatory amino acid neurotransmitter receptors having increased potency” (priority 1987, dated 1988).

How the values were obtained:
ischemic brain damage = conditions: intrahippocampally; rodent carotid artery occlusion model; cited from earlier work
[1] = tested on: photically-induced myoclonus; conditions: i.v.; baboon; cited from earlier work
[2] = tested on: electroshock-induced seizures; conditions: mice; cited from earlier work
[3] = tested on: chemically-induced seizures; conditions: rodents; cited from earlier work
[4] = tested on: audiogenically-induced seizures; conditions: i.c.v. and i.v.; genetically susceptible mice; cited from earlier work
[5] = tested on: neurotoxic and convulsive actions of NMDA, IBO and Quin; conditions: in vivo; cited from earlier work

In the case of `N[C@H](CCCCCP(=O)(O)O)C(=O)O` [AP7, D(-)-2-amini-7-phosphonoheptanoic acid], the “Effect on ischemic brain damage” value (ischemic brain damage) is given as “markedly reduce or eliminate ischemic brain damage”, the “Effect on photically-induced myoclonus” value [1] is given as “suppresses photically-induced myoclonus” and the “Effect on threshold current for electroshock-induced seizures” value [2] is given as “increased threshold current for electroshock-induced seizures”. The “Effect on chemically-induced seizures” value [3] was “prevents chemically-induced seizures”, the “Protection against audiogenically-induced seizures” value [4] was “protects against audiogenically-induced seizures” and the “Effect on neurotoxic and convulsive actions of NMDA, IBO and Quin (but not KA)” value [5] was “interferring with the neurotoxic and convulsive actions of NMDA, the exogenous excitotoxin, IBO, and the endogenous excitotoxin Quin (but not KA)”.
